Reference: patent US20250084095A1, “Aminopyrimidine Derivatives as Cyclin-Dependent Kinase Inhibitors” (Accutar Biotechnology Inc., priority 2023, published 2025)

What was measured:
[1] = in vitro; conditions: both, human, hepatocytes
Experimental: (§4) Human hepatocyte stability assay was performed at Pharmaron. Human hepatocytes from mixed genders were purchased from BioIVT (Product #X008001). Compounds and positive control were incubated with human hepatocytes. Verapmil was used as a positive control. […] An aliquot of 100 μL of the supernatant was diluted by 100 μL ultra-pure water, and the mixture was used for LC/MS/MS analysis. The percent of parent remaining, intrinsic clearance (CLint) and tr2 were calculated.

[2] = target: CDK2-CYCLIN E1 (Homo sapiens (Human), UniProt P24941); test: CDK protein kinase inhibition by the ADP-Glo Assay, CDK2-CYCLIN E1; format: biochemical; conditions: 1000 μM ATP, read-out: CDK2-CYCLIN E, IC50
Experimental: (§1) This ADP-Glo assay measures ADP formed from a kinase reaction and indirectly quantifies the phosphorylation of peptide substrates by the CDK/cyclin protein complexes. The typical assays were carried out in Nanosyn by combining kinase/cyclin complexes, substrates, compounds, and cofactors (ATP and Mg2+) in a well of a 384-well microtiter plate (Coming 3824) and incubating at 22° C. (Table 4). At the end of the incubation, the reaction is quenched, and conversion is detected by luminescence using the Promega ADP-Glo™ Kinase Assay kit (catalog #V9102). Briefly, 5 μL of 1× enzyme and substrate buffer (or control), 50 nL of 100× compound, and 0.5 μL of 10 mM ATP were sequentially added to a well of a 384-well plate.
(§2) The Final assay buffer mixture contains: 100 mM HEPES, pH 7.5, 0.1% BSA, 0.01% Triton X-100, 1 mM DTT, 5 mM MgCl2, 10 μM Sodium Orthovanadate, 10 μM Beta-Glycerophosphate, 1000 μM Ultra Pure ATP (provided in the Promega ADP-Glo™ Kinase Assay kit), and 1% DMSO (from compound).
(§3) Upon completion, 5 μL of the ADP Glo reagent was added to each well and the plate was further incubated at room temperature for 45 min. 10 μL of the Kinase Detection Reagent was subsequently added to each well. After 10 min of incubation, the plate was read and analyzed on the BioTek Synergy microplate reader using BioTek Gen5 software.

[3] = target: CDK6-CYCLIN D3 (Homo sapiens (Human), UniProt Q00534); test: CDK protein kinase inhibition by the ADP-Glo Assay, CDK6-CYCLIN D3; format: biochemical; conditions: 1000 μM ATP
CDK6-CYCLIN D3, sequence (Q00534 whole entry): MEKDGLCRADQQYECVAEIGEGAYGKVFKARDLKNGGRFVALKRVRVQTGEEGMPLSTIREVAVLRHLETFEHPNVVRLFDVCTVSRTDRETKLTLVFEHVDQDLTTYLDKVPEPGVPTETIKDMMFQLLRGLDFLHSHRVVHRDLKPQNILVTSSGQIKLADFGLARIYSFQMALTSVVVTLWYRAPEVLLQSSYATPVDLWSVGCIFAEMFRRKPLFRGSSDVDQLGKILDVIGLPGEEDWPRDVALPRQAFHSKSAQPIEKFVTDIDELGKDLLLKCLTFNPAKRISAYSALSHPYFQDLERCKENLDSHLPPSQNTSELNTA
CDK6-CYCLIN D3, sequence (P30281 whole entry partner): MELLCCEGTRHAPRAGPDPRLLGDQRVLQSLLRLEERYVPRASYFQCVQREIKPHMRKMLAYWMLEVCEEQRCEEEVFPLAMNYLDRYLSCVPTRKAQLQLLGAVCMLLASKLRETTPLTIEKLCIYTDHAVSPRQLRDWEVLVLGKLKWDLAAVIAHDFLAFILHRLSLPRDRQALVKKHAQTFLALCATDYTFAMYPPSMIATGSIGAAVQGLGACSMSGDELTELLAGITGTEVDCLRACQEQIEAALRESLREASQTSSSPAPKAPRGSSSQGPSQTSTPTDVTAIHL
Experimental: as §1, §2, §3

[4] = target: CDK4-CYCLIN D1 (Homo sapiens (Human), UniProt P11802); test: CDK protein kinase inhibition by the ADP-Glo Assay, CDK4-CYCLIN D1; format: biochemical; conditions: for IC50: ADP-Glo, 1000 μM ATP; for Selectivity CDK4 vs CDK1 / Selectivity CDK4 vs CDK2 / Selectivity CDK4 vs CDK6 / Selectivity CDK4 vs CDK9: ratio of recombinant kinase IC50s; for Selectivity CDK4 vs CDK1: CDK1 over CDK4; for Selectivity CDK4 vs CDK2: CDK2 over CDK4; for Selectivity CDK4 vs CDK6: CDK6 over CDK4; for Selectivity CDK4 vs CDK9: CDK9 over CDK4
CDK4-CYCLIN D1, sequence (P11802 whole entry): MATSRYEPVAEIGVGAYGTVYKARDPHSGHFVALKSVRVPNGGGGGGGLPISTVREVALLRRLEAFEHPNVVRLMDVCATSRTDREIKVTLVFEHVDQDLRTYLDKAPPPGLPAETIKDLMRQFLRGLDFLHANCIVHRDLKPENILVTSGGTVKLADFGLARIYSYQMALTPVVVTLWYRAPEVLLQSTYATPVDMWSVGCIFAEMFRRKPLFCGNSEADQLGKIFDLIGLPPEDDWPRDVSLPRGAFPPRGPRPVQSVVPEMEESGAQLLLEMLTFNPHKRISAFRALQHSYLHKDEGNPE
CDK4-CYCLIN D1, sequence (P24385 whole entry partner): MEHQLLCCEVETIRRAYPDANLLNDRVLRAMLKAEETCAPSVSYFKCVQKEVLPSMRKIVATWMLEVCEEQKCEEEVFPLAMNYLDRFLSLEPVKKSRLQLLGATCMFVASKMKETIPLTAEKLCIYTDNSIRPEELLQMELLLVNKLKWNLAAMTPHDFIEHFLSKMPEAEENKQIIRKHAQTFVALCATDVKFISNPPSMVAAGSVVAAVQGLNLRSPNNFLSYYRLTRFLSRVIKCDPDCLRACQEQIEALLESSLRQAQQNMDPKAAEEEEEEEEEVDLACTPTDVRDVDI
Experimental: as §1, §2, §3

[5] = Human hepatocyte stability assay; conditions: human hepatocytes, 1 μM, 120 min incubation
Experimental: as §4

| Hepatic Extraction Ratio (ER) (both, human, 1 μM) | Predicted Hepatic CLH (both, human, 1 μM) | CLint scaled at 1 μM [1] | half-life at 1 μM [1] | Selectivity for CDK4 over CDK1, CDK2, CDK6 and CDK9 compared with the reference compound ([4]; versus PF-07220060) | SMILES | In vitro CLint (μL/min/10^6 cell) (human, hepatocytes) | IC50 [2] | IC50 [3] | IC50 [4] | Selectivity CDK4 vs CDK1 [4] | Selectivity CDK4 vs CDK2 [4] | Selectivity CDK4 vs CDK6 [4] | Selectivity CDK4 vs CDK9 [4] | Scaled-up CLint (hepatocytes) | t1/2 [5] |
| --- | --- | --- | --- | --- | --- | --- | --- | --- | --- | --- | --- | --- | --- | --- | --- |
| 0.23 | 4.9 mL/min/kg | 6.4 mL/min/kg | 9.26 h | much better selectivity | CC(C)n1c(C(C)(C)O)nc2c(F)cc(-c3nc(N[C@@H]4C[C@H]5CO[C@H](O5)[C@H]4O)ncc3Cl)cc21 [Compound 1, (1S,3R,4S,5R)-3-((5-chloro-4-(4-fluoro-2-(2-hydroxypropan-2-yl)-1-isopropyl-1H-benzo[d]imidazol-6-yl)pyrimidin-2-yl)amino)-6,8-dioxabicyclo[3.2.1]octan-4-ol] | 2.5 μL/min/10^6 cell | > 30000 nM | 63.8 nM | 3.15 nM | 8,317 | >9,524 | 20 | 1,549 |  |  |
|  |  |  |  |  | CC(C)n1c(C(C)(C)O)nc2c(F)cc(-c3nc(N[C@@H]4CCOC[C@H]4O)ncc3Cl)cc21 [Reference Compound, PF-07220060, reference compound] | 11.3 μL/min/10^6 cell | > 30000 nM | 76.5 nM | 4.37 nM | 1,966 | >6,865 | 18 | 430 | 28.6 mL/min/kg | 2.057 h |
